Article PMC5571359, “Screening the Medicines for Malaria Venture Pathogen Box across Multiple Pathogens Reclassifies Starting Points for Open-Source Drug Discovery” (Antimicrobial Agents and Chemotherapy, 2017)
Like-named read-outs stand apart in the source and are kept apart here.

Legend:
P. falciparum ABS = conditions: cited from earlier work; for EC50: ChEMBL Data; for IC50: read-out: Pf 3D7 Pbox IC50
HepG2 = conditions: cited from earlier work
liver stage = conditions: cited from earlier work
HEK293 cells = assay: HEK293 resazurin cell cytotoxicity assay; conditions: Homo sapiens
[1] = test system: T. b. brucei 427 bloodstream trypanosomes; assay: T. b. brucei resazurin viability assay; format: cell-based, Trypanosoma brucei brucei; conditions: Trypanosoma brucei
T. brucei brucei = conditions: ref Pbox supporting information; read-out: T.b. brucei Pbox IC50; cited from earlier work
[2] = NITD, read-out: NITD (ref 94) EC50
[3] = TCMDC, read-out: TCMDC (ref 93) EX50
[4] = Pf 3D7, ref Pathogen Box supporting information
[5] = read-out: HepG2 PBox CC50 µM, HepG2 CC50, ref Pathogen Box supporting information
[6] = liver stage, ref Pathogen Box supporting information, read-out: LIVER STAGE Pbox IC50
[7] = HEK293, read-out: HEK % Inhibition 20uM/IC50 Discovery Biology
[8] = P. falciparum, read-out: TCMDC (ref 93) EX50
[9] = P. falciparum 3D7, ref PBox supporting information
[10] = read-out: HepG2 PBox CC50 µM, ref PBox supporting information
[11] = ref Pbox supporting information
[12] = HEK293, read-out: HEK % Inhibition 20uM/IC50 Discovery Biology (IA)
[13] = P. falciparum, read-out: NITD (ref 94) EC50

Row | SMILES | EC50 (P. falciparum ABS; [3]) [nM] | IC50 (P. falciparum ABS; [4]) [nM] | CC50 (HepG2; [5]) [µM] | IC50 (liver stage; [6]) [nM] | IC50 (P. falciparum ABS; [9]) [nM] | CC50 (HepG2; [10]) [µM] | IC50 (liver stage; [11]) [nM] | further results
1 | CCOc1ccc(-c2nc(NC(=O)CS(=O)(=O)c3ccccc3)sc2C)cc1 [MMV007638] | 510 | 660 | > 10 | > 10000 |  |  |  | EC50 (P. falciparum ABS; [2]): 530 nM
2 | Nc1ccc(C(=O)Nc2ccc(-c3nc4ccccc4o3)cc2)cc1 [MMV007920] |  | 1550 | > 10 | > 10000 |  |  |  | EC50 (P. falciparum ABS; [2]): 940 nM
3 | COc1ccc(CN2CCOc3ccc(C(C)(O)CN(C)C)cc3C2)cc1C (centres unmarked) [MMV008439] |  | > 2000 | > 10 | 930 |  |  |  | EC50 (P. falciparum ABS; [2]): 820 nM
4 | Cc1cc(C(=O)Nc2cnn(Cc3ccc(Cl)cc3Cl)c2)no1 [MMV009054] |  | 1880 | > 10 | 1390 |  |  |  | EC50 (P. falciparum ABS; [2]): 620 nM
5 | c1csc(-c2cnc3sc(NCC4CCOCC4)nn23)c1 [MMV010764] |  | 1370 | > 10 | > 10000 |  |  |  | 
6 | NCC(=O)N1CCn2c(nc(-c3ccccc3)c2Nc2ccc3c(c2)OCO3)C1 [MMV011691] |  | 640 |  | 3780 |  |  |  | EC50 (P. falciparum ABS; [2]): 160 nM; CC50 (HepG2): > 10 µM
7 | Cc1cc(C)n2nc(C(=O)Nc3cc(C(F)(F)F)ccc3N3CCOCC3)nc2n1 [MMV019087] | 120 | 220 | > 10 | 1210 |  |  |  | 
8 | Cc1ccc(S(=O)(=O)N2CCN(C(=O)c3cc(-c4ccccc4)n[nH]3)CC2)cc1 [MMV019742] | 600 | 1040 | > 10 | 630 |  |  |  | 
9 | CC1CC1C(=O)NC1CCN(CC2(c3ccccc3)CCCCC2)CC1 (centres unmarked) [MMV020120] | 640 | 580 | > 10 | 2250 |  |  |  | 
10 | Cc1cc(C(=O)Nc2ccc(-c3ccccc3)cc2)no1 [MMV020152] | 690 | 820 | > 10 | > 10000 |  |  |  | 
11 | Cc1ccc(NC(=O)c2cc(S(=O)(=O)NC(C)(C)C)ccc2C)nc1 [MMV020289] | 760 | 930 | > 7.5 | 7350 |  |  |  | 
12 | Cc1nnc(NC(=O)c2cn(-c3ccccc3)nc2-c2ccccc2C)o1 [MMV020320] | 570 | 710 | > 10 | 170 |  |  |  | 
13 | Cc1ccc(Oc2ccc(NC(=O)CNc3ccccc3N3CCCC3=O)cc2)cc1 [MMV020512] | 370 | 480 | 9.8 | 9100 |  |  |  | 
14 | O=C(NC1CC1)c1ccc(N2CCOc3ccc(Cl)cc32)s1 [MMV020537] | 800 | 1030 | > 10 | 3480 |  |  |  | 
15 | CC(C)C(NC(=O)Cc1cccc2ccccc12)C(=O)Nc1cccc(C#N)c1 (centres unmarked) [MMV020591] | 660 | 960 | > 10 | 9150 |  |  |  | 
16 | Cc1nc(-c2cccc(NCc3ccccc3)c2)[nH]c1C [MMV023227] | 860 | 1940 | > 10 | 4590 |  |  |  | 
17 | O=C(NC1CCN(c2ccnc3ccccc23)C1)c1cccc(C(F)(F)F)c1 (centres unmarked) [MMV023388] | 900 | 710 | > 10 | 6540 |  |  |  | 
18 | Cc1ccc(S(=O)(=O)n2cc(-c3ccnc(N)c3)c3cc(Br)cnc32)cc1 [MMV024114] | 900 | 630 | > 6 | > 6000 |  |  |  | inhibition at 20 µM (HEK293 cells; [7]): 60%
19 | CN(C)CCNC(=O)N1CCCN(c2ncnc3cc(-c4ccccc4)sc23)CC1 [MMV024195] | 790 | 1580 | > 10 | 1970 |  |  |  | 

Row | SMILES | EC50 (P. falciparum ABS; [3]) [nM] | IC50 (P. falciparum ABS; [4]) [nM] | CC50 (HepG2; [5]) [µM] | IC50 (liver stage; [6]) [nM] | IC50 (P. falciparum ABS; [9]) [nM] | CC50 (HepG2; [10]) [µM] | IC50 (liver stage; [11]) [nM] | further results
20 | O=C(NC1CC1)c1ccc(N2CCC(Cc3ccccc3)CC2)nc1 [MMV024397] | 760 | 1330 | > 10 | 1410 |  |  |  | 
21 | O=C(Nc1cccc(Cl)c1)c1cnc(N2CCN(c3ccncc3)CC2)c(Cl)c1 [MMV024406] | 960 | 830 | > 10 | 2350 |  |  |  | 
22 | Cc1cccc(C(=O)Nc2ccnc(N(C)C3CCN(CC(C)C)CC3)c2)c1 [MMV024829] | 870 | 2100 |  | > 10000 |  |  |  | CC50 (HepG2): > 10 µM
23 | O=C(Nc1ccc(N2CCNCC2)nc1)c1oc(-c2ccccc2)nc1C(F)(F)F [MMV024937] | 980 | 1220 | > 10 | 2550 |  |  |  | 
24 | Nc1nccc2ccc(Oc3ccncc3)cc12 [MMV026313] |  |  |  |  | 230 | > 10 | > 10000 | EC50 (P. falciparum ABS; [8]): 480 nM
25 | OCCc1ccc(Nc2nccc(-c3nnc4ccccn34)n2)cc1 [MMV028694] |  |  |  |  | 1080 | 8.1 | 1470 | EC50 (P. falciparum ABS; [8]): 900 nM; IC50 ([1]; PBox compounds, read-out: IC50 T. brucei brucei (Discovery Biology)): 2390 nM; IC50 (HEK293 cells; [12]): > 20000 nM
26 | CNC(=O)C1Cc2c([nH]c3cc(Cl)ccc23)C2(CCN(CCc3ccccc3)CC2)N1 (centres unmarked) [MMV031011] |  |  |  |  | 860 | > 10 | 4510 | EC50 (P. falciparum ABS; [8]): 930 nM; IC50 (HEK293 cells; [12]): > 20000 nM
27 | FC(F)(F)c1cccc(-c2nc3c(NCc4ccncc4)nccc3[nH]2)c1 [MMV032967] |  |  |  |  | 510 | > 10 | > 10000 | 
28 | O=C1N(Cc2cc3ccccc3s2)CC2CN(Cc3ccccc3)CCN12 (centres unmarked) [MMV084603] |  |  |  |  | 1160 | > 10 | 200 | EC50 (P. falciparum ABS; [13]): 440 nM
29 | COc1cncc(-c2cncc(N3CCN(c4ccncc4)CC3)n2)c1 [MMV085071] |  |  |  |  | 100 | > 10 | > 7500 | EC50 (P. falciparum ABS; [13]): 80 nM
30 | COc1cccc(-c2cc3c(Nc4cccnc4)nccc3[nH]2)c1 [MMV392832] |  |  |  |  | 1280 | > 10 | > 10000 | 
31 | CCOc1ccccc1NC(C)C(=O)Nc1cc(C(F)(F)F)ccc1N1CCOCC1 (centres unmarked) [MMV407834] |  |  |  |  | 420 | > 10 | > 10000 | 
32 | Clc1cccc(C(c2ccc(CN3CCNCC3)cc2)n2ccnc2)c1 (centres unmarked) [MMV663250] |  |  |  |  | 1630 | > 10 | > 10000 | IC50 (HEK293 cells; [12]): > 20000 nM
33 | CN1CCN(c2nccc3nc(-c4ccc(F)c(F)c4)[nH]c23)CC1 [MMV676260] |  |  |  |  | 1130 | > 10 | > 10000 | 
34 | C[C@H](C(N)=O)N1CCCC[C@H]1c1ccc(OCc2cccc(F)c2)cc1 [MMV676269] |  |  |  |  | > 2000 | > 10 | 1360 | EC50 (P. falciparum ABS; [8]): 990 nM
35 | Cc1cnc(CCNC(=O)c2cc(-c3ccc(Cl)cc3)cs2)[nH]1 [MMV676350] |  |  |  |  | 810 | > 10 | 8580 | EC50 (P. falciparum ABS; [8]): 240 nM
36 | Cc1cccc(NC(=O)c2cc(S(=O)(=O)N(C)c3ccc(F)cc3)ccc2Cl)n1 [MMV676528] |  |  |  |  | 1580 | > 10 | 6770 | 
37 | C[C@]1(O)C[C@@H](c2nc(-c3ccc4ccc(-c5ccccc5)nc4c3)c3c(N)nccn32)C1 [MMV676605] |  |  |  |  | > 2000 |  | 360 | CC50 (HepG2): > 10 µM
38 | COc1ccc(C2=NN(C3CCCCCC3)C(=O)[C@@H]3CC=CC[C@H]23)cc1OCCCCOc1ccc(-c2nn[nH]n2)cc1 [MMV690027] |  |  |  |  |  |  |  | IC50 ([1]; read-out: T b.brucei Discovery Biology IC50): 500 nM; IC50 (T. brucei brucei): 20 nM; IC50 (HEK293 cells; [7]): > 20000 nM
